Measurements from US20240400553A1, “AMINE BASED MATRIPTASE 2 INHIBITORS AND USES THEREOF” (Disc Medicine, Inc., priority 2023, published 2024).

Each compound was assayed against T1, Human Recombinant Matriptase 2 (Homo sapiens, UniProt Q8IU80) (assay: Matriptase 2 inhibition, fluorescence based assay (Method I)). Details: Table A; Ki of Matriptase-2; read-out: Mat-2 Ki.
T1 construct: made in house
T1 sequence (Q8IU80 1-811): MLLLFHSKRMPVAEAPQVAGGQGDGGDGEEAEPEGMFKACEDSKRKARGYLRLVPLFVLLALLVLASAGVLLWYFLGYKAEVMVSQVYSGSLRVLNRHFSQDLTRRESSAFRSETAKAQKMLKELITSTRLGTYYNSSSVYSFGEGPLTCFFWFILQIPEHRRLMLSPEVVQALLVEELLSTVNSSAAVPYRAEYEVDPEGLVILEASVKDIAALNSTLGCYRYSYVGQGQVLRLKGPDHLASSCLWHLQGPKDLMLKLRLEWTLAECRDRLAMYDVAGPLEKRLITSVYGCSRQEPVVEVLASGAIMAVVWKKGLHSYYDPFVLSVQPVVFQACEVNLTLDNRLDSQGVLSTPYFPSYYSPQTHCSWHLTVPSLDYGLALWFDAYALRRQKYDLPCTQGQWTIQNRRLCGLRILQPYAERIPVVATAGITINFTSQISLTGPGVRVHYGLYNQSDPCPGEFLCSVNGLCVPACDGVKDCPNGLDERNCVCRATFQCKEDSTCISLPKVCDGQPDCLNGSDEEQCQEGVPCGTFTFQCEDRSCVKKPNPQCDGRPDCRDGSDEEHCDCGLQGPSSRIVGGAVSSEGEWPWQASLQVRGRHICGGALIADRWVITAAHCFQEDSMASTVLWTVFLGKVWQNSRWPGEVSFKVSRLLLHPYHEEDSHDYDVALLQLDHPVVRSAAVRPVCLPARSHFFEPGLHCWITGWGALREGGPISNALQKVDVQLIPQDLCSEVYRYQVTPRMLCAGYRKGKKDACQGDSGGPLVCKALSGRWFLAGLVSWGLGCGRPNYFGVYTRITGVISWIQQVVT
Format: biochemical
Method in brief: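 Fluorogenic readout (Ex 360/Em 480 nm) taken 60 min after adding 62 μM Boc-Gln-Ala-Arg-AMC, following 30-min enzyme–compound preincubation at 25 °C. Conditions: 3.5 nM in-house enzyme, pH 7.5 Tris/NaCl/gelatin buffer, 1% DMSO; percent inhibition versus concentration fitted by variable-slope sigmoidal regression.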

Row | Structure (SMILES) | Ki [nM]
1 | CN1CCC(COC(=O)c2cc3ccc(CN)nc3n2Cc2cc(NS(=O)(=O)CC[C@@H]3CCCN3)cc3ccccc23)CC1 [Compound 2] | 500 to 3000
2 | NCc1ccc2cc(C(=O)OCC34CCN(CC3)CC4)n(Cc3cc(NS(=O)(=O)Cc4ccccc4)cc4ccccc34)c2n1 [Compound 19, {1-azabicyclo[2.2.2]-octan-4-yl}methyl 6-(aminomethyl)-1-{[3-(phenylmethanesulfon-amido)naphthalen-1-yl]-methyl}-1H-pyrrolo[2,3-b]pyridine-2-carboxylate] | ≤ 100
3 | COCCN1CCCC(COC(=O)c2cc3ccc(CN)nc3n2Cc2cc(NS(=O)(=O)Cc3c(C)cccc3C)cc3ccccc23)C1 (racemic) [Compound 193, [1-(2-methoxyethyl)-piperidin-3-yl]methyl 6-(aminomethyl)-1-({3-[(2,6-dimethylphenyl)-methanesulfonamido]-naphthalen-1-yl}meth-yl)-1H-pyrrolo[2,3-b]-pyridine-2-carboxylate] | ≤ 100
4 | COCCN1CCC[C@H](COC(=O)c2cc3ccc(CN)nc3n2Cc2cc(NS(=O)(=O)Cc3ccccc3)cc3ccccc23)C1 (racemic) [Compound 144, rac-[(3R)-1-(2-methoxy-ethyl)piperidin-3-yl]-methyl 6-(aminometh-yl)-1-(phenylmethane-sulfonamido)naphthalen-1-yl]methyl}-1H-pyrrolo-[2,3-b]pyridine-2-car-boxylate] | ≤ 100
5 | C[C@@H](CCOC(=O)c1cc2ccc(CN)nc2n1Cc1cc(NS(=O)(=O)Cc2ccccc2)cc2ccccc12)N1CCOCC1 (racemic) [Compound 143, rac-(3R)-3-(morpholin-4-yl)butyl 6-(aminometh-yl)-1-{[3-(phenylmeth-anesulfonamido)naph-thalen-1-yl]methyl}-1H-pyrrolo-[2,3-b]pyridine-2-carboxylate] | ≤ 100
6 | COCCN1CC[C@H](COC(=O)c2cc3ccc(CN)nc3n2Cc2cc(NS(=O)(=O)Cc3ccccc3)cc3ccccc23)C1 (racemic) [Compound 138, rac-[(3R)-1-(2-methoxy-ethyl)pyrrolidin-3-yl]-methyl 6-(aminometh-yl)-1-{[3-(phenylmeth-anesulfonamido)naph-thalen-1-yl]methyl}-1H-pyrrolo[2,3-b]pyridine-2-carboxylate] | ≤ 100
7 | Cc1cccc(C)c1CS(=O)(=O)Nc1cc(Cn2c(C(=O)NCCC3CCN(C)CC3)cc3ccc(CN)nc32)c2ccccc2c1 [Compound 183, 6-(aminomethyl)-1-({3-[(2,6-dimethylphenyl)-methanesulfonamido]-naphthalen-1-yl}meth-yl)-N-[2-(1-methylpiper-idin-4-yl)ethyl]-1H-pyr-rolo[2,3-b]pyridine-2-carboxamide] | ≤ 100

Next, values leading:

Row | Ki [nM] | Structure (SMILES)
8 | 100 to 500 | CC(=O)N(C)CCOC(=O)c1cc2ccc(CN)nc2n1Cc1cc(NS(=O)(=O)Cc2ccccc2)cc2ccccc12 [Compound 141, 2-(N-methylacetamido)-ethyl 6-(aminomethyl)-1-{[3-(phenylmethane-sulfonamido)naphthalen-1-yl]methyl}-1H-pyrrolo-[2,3-b]pyridine-2-car-boxylate]
9 | ≤ 100 | Cn1ccnc1COC(=O)c1cc2ccc(CN)nc2n1Cc1cc(NS(=O)(=O)Cc2ccccc2)cc2ccccc12 [Compound 137, (1-methyl-1H-imidazol-2-yl)methyl 6-(amino-methyl)-1-{[3-(phenyl-methanesulfonamido)-naphthalen-1-yl]methyl}-1H-pyrrolo[2,3-b]pyr-idine-2-carboxylate]
10 | 100 to 500 | CN(Cc1nccn1C)C(=O)c1cc2ccc(CN)nc2n1Cc1cc(NS(=O)(=O)Cc2ccsc2)cc2ccccc12 [Compound 181, 6-(aminomethyl)-N-methyl-N-[(1-methyl-1H-imidazol-2-yl)meth-yl]-1-({3-{(thiophen-3-yl)methanesulfonamido]-naphthalen-1-yl}methyl)-1H-pyrrolo[2,3-b]pyr-idine-2-carboxamide]
11 | 500 to 3000 | NCc1ccc2cc(C(=O)OCc3ccccc3)n(Cc3cc(NS(=O)(=O)Cc4ccccc4)cc4ccccc34)c2n1 [Compound 123, benzyl 6-(aminomethyl)-1-{[3-(phenylmethane-sulfonamido)naphthalen-1-yl]methyl}-1H-pyr-rolo[2,3-b]pyridine-2-carboxylate]
12 | ≤ 100 | COCCN1CC[C@H](COC(=O)c2cc3ccc(CN)nc3n2Cc2cc(NS(=O)(=O)Cc3ccsc3)cc3ccccc23)C1 (racemic) [Compound 172, [1-(2-methoxyethyl)-pyrrolidin-3-yl]methyl 6-(aminomethyl)-1-({3-[(thiophen-3-yl)methane-sulfonamido]naphthalen-1-yl}methyl)-1H-pyr-rolo[2,3-b]pyridine-2-carboxylate]
13 | 100 to 500 | CN(CCOC(=O)c1cc2ccc(CN)nc2n1Cc1cc(NS(=O)(=O)Cc2ccccc2)cc2ccccc12)Cc1ccccc1 [Compound 134, 2-[benzyl(methyl)-amino]ethyl 6-(amino-methyl)-1-{[3-(phenyl-methanesulfonamido)-naphthalen-1-yl]methyl}-1H-pyrrolo[2,3-b]pyr-idine-2-carboxylate]

Same assay, conditions: Table A; Ki of Matriptase-2 given as class symbols; read-out: Mat-2 Ki

Row | Structure (SMILES) | Ki [nM]
14 | CC(C)(C)S(=O)(=O)N1CCC(CNC(=O)Nc2cc(Cn3c(C(=O)O)cc4ccc(CN)nc43)c3ccccc3c2)CC1 [Compound 294, 6-(aminomethyl)-1-({3-[({[1-(2-methylpropane-2-sulfonyl)piperidin-4-yl]methyl}carbamoyl)-amino]naphthalen-1-yl}-methyl)-1H-pyrrolo[2,3-b]pyridine-2-carboxylic acid] | 100 to 500
15 | CN1CCC(COC(=O)c2cc3ccc(CN)nc3n2Cc2cc(NS(=O)(=O)Cc3ccccc3C(F)(F)F)cc3ccccc23)CC1 [Compound 209, (1-methylpiperidin-4-yl)-methyl 6-(aminomethyl)-1-[(3-{[2-(trifluorometh-yl)phenyl]methanesul-fonamido}naphthalen-1-yl)methyl]-1H-pyrrolo-[2,3-b]pyridine-2-car-boxylate] | ≤ 100
16 | CC(=O)OC(C)OC(=O)c1cc2ccc(CN)nc2n1Cc1cc(NS(=O)(=O)CC[C@@H]2CCCN2)cc2ccccc12 (stereo partly drawn) [Compound 275, 1-[6-(aminomethyl)-1-[(3-{2-[(2S)-pyrrolidin-2-yl]ethanesulfonamido}naphthalen-1-yl)methyl]-1H-pyrrolo[2,3-b]pyr-idine-2-carbonyloxy]-ethyl acetate] | 500 to 3000
17 | NCc1ccc2cc(C(=O)OCCO)n(Cc3cc(NS(=O)(=O)CC[C@@H]4CCCN4)cc4ccccc34)c2n1 [Compound 260, 2-hydroxyethyl 6-(aminomethyl)-1-[(3-{2-[(2S)-pyrrolidin-2-yl]-ethanesulfonamido}naph-thalen-1-yl)methyl]-1H-pyrrolo[2,3-b]pyridine-2-carboxylate] | 100 to 500

Continued, values first:

Row | Ki [nM] | Structure (SMILES)
18 | ≤ 100 | CN1CCC(COC(=O)c2cc3ccc(CN)nc3n2Cc2cc(NS(=O)(=O)Cc3ccc(F)cc3)cc3ccccc23)CC1 [Compound 206, (1-methylpiperidin-4-yl)-methyl 6-(aminomethyl)-1-({3-[(4-fluorophenyl)-methanesulfonamido]-naphthalen-1-yl}meth-yl)-1H-pyrrolo[2,3-b]-pyridine-2-carboxylate]
19 | 100 to 500 | CN1CCC(COC(=O)c2cc3ccc(CN)nc3n2Cc2cc(NS(=O)(=O)Cc3cccc(C#N)c3)cc3ccccc23)CC1 [Compound 221, (1-methylpiperidin-4-yl)methyl 6-(aminometh-yl)-1-({3-[(3-cyanophen-yl)methanesulfonamido]-naphthalen-1-yl}methyl)-1H-pyrrolo[2,3-b]pyr-idine-2-carboxylate]
20 | 100 to 500 | Cc1nc(CS(=O)(=O)Nc2cc(Cn3c(C(=O)O)cc4ccc(CN)nc43)c3ccccc3c2)cs1 [Compound 256, 6-(aminomethyl)-1-({3-[(2-methyl-1,3-thiazol-4-yl)methanesulfon-amido]naphthalen-1-yl}-methyl)-1H-pyrrolo[2,3-b]pyridine-2-carboxylic acid]

Same assay, conditions: Table B; Human Recombinant Matriptase 2, 3.5 nM enzyme, 62 μM substrate, 30 mins preincubation; read-out: Mean Ki

Row | Structure (SMILES) | Ki [nM]
21 | NCc1ccc2cc(C(=O)Nc3ccc(N)cc3)n(Cc3cc(NS(=O)(=O)Cc4ccccc4)cc4ccccc34)c2n1 [Compound 2.35] | 100 to 500
22 | NCc1ccc2cc(C(=O)OCC3CCNC(=O)C3)n(Cc3cc(NS(=O)(=O)Cc4ccsc4)cc4c3CCCC4)c2n1 (stereo not drawn) [Compound 2.11] | ≤ 100

The next lines start with the values.

Row | Ki [nM] | Structure (SMILES)
23 | 100 to 500 | CN(C)c1ccc(NC(=O)c2cc3ccc(CN)nc3n2Cc2cc(NS(=O)(=O)Cc3ccccc3)cc3ccccc23)cc1 [Compound 2.36]
24 | ≤ 100 | CN1CC(CCOC(=O)c2cc3ccc(CN)nc3n2Cc2cc(NS(=O)(=O)Cc3ccccc3)cc3ccccc23)CC1=O (stereo not drawn) [Compound 2.7]
